Drawing on a melting point compilation (Tetko et al.; mined from patent text by program, amines drawn as free bases though some values may be those of a salt), this text covers melting point for 88 compounds.

One may read the melting point as the temperature of the solid-liquid transition.

A value given as a limit tells only on which side of the number the result lay.

Compound `CC(C)(C#N)Cc1ccc(-c2ccc(CC(C)(C)C#N)cc2)cc1` registered a melting point of 174 to 182 °C. Consider `NCCc1cn(C(c2ccccc2)(c2ccccc2)c2ccccc2)cn1`, for which the melting point is 111 to 113 °C. `COC(=O)c1ccc(-c2nc(-c3ccc(OC(F)F)cc3)co2)cc1` gave a melting point of 160 to 161 °C. `CCOC(=O)C=Cc1ccc(C#N)cc1` gave a melting point of 71 °C. With `CCCCCCCC(=O)N(C)Cc1cccc(-c2ccc(C=CC(=O)O)cc2)c1`, the melting point was 124 to 125 °C. For the compound `CCOc1ccc(-c2nc3n(c2-c2ccncc2)CCC3)cc1`, the melting point is 133 to 135 °C. The compound `CC(=O)NC[C@H]1CN(c2ccc(N3CCC(F)(CC#N)CC3)c(F)c2)C(=O)O1` had a melting point of 210 to 212 °C.

For the compound `COc1ccc(C(=O)CC(SC(C)=O)C(=O)O)cc1OC` (stereo not drawn), the melting point lay in the range of 110 to 112 °C.

In turn, `O=c1oc2cc(O)ccc2c2c1CCCC2` registered a melting point of 200 to 202 °C. In turn, `CCCc1nn(-c2ccc(C(F)(F)F)cn2)cc1CCCOc1ccc(CC(=O)O)cc1OC` displayed a melting point of 121 to 122 °C. Turning to `COc1cc(C(=O)c2ccc(C(F)(F)F)cc2)cc(C#N)c1OC`, the melting point worked out at 130 °C.

`COc1ccc(C2=NN(C3CCCCCC3)C(=O)[C@H]3CC=CC[C@@H]23)cc1OCC1CC1` (relative stereo): the melting point was in the range of 102 to 103 °C. To `O=C(CCCCCl)c1ccc2c(c1)Cc1cc(C(=O)CCCCCl)ccc1O2` belongs 134 to 135 °C; to `O=C(NN=Cc1ccccc1)c1ccc(C(F)(F)F)cc1`, 216 to 217 °C. Take `CCOc1ccc(NC(=O)NCCc2ccccn2)cc1`: the melting point was in the range of 163 to 164 °C. Take `CC1(C)N=C(CCO)C2=C(N1)N(Cc1ccccc1)C(=O)C(N)O2` (stereo not drawn): the melting point lay within 124 to 126 °C.

As for `CCOC(=O)C1=C(C)NC(=O)N(C(=O)OCC)C1c1cccc([N+](=O)[O-])c1` (stereo not drawn), the melting point was 107 to 108 °C.

Take `CS(=O)(=O)c1ccc(-c2cc(C(=O)CCCO)nn2-c2ccc(C(F)(F)F)cc2)cc1`: the melting point lay within 60 to 63 °C. Regarding `Nc1ccc(OC(F)(F)F)cc1C(=O)O`, the melting point is 142 to 144 °C. Turning to `CCOC(=O)C1=C(C)NC(O)(c2cccc(Cl)c2)C(C(=O)OCC)C1c1cccc([N+](=O)[O-])c1` (stereo not drawn), the melting point was in the range of 212 to 214 °C. Regarding `CN(C)C(=O)c1ccc(CCC(=O)c2cccc(OCc3ccc4ccc(Cl)cc4n3)c2)o1`, the melting point lay within 129 to 131 °C. For the compound `CSc1nc(Cl)c(-c2c(F)cc(F)cc2F)c(Cl)n1`, the melting point came out at 75 °C. Compound `COCCOc1ccc(/C=C(\C)C(=O)O)c(Oc2ncc(Cl)cc2Cl)c1` returned a melting point of 126 to 127 °C. The compound `CC(C)(C)OC(=O)NCCCCC(NC(=O)OCc1ccccc1)C(N)=O` (stereo not drawn) showed a melting point of 140 to 142 °C. Regarding `C[C@H](Nc1c(-c2c(F)cc(F)cc2F)c(Br)nc2ncnn12)C(F)(F)F`, the melting point was 95 to 97 °C. With `COC(=O)Cc1ccc(OCCNC(=O)[C@@H]2Cc3ccccc3N2S(=O)(=O)c2ccc(OC(C)(C)C)cc2)cc1` the figure was 45 to 48 °C; with `Nc1ccc(F)cc1Nc1ccc(F)cc1`, 83 to 84 °C. In turn, `N#Cc1ccc(N2C(=N)C3(CCSCC3)NC2=O)cc1C(F)(F)F` returned a melting point of 226 to 227 °C. Take `CCCC1(C)SC(=NOC(=O)NC)N=C1C` (stereo not drawn): the melting point is 66 to 69 °C.

Compound `COC(=O)C1=Cc2cc(-c3ccc(C(C)(C)C)cc3)ccc2S(=O)(=O)CC1` registered a melting point of 170 to 172 °C. Turning to `O=C1NC(=O)C(Cc2ccc(OCc3nc4ncccc4[nH]3)cc2)S1` (stereo not drawn), the melting point lay within 247 to 248 °C. Take `CN(C)c1ccc(Br)cn1`: the melting point was in the range of 39 to 41 °C.

For `NCCNC(=O)Nc1ccc2[nH]ccc2c1`, the melting point fell in the range of 156 to 158 °C.

On to `COc1cc(C=C2C(=O)CCc3c2ccc(OC)c3OC)c([N+](=O)[O-])cc1OC`, for which the melting point is 70 to 72 °C. To `CC1(C)OCCC(=O)c2ccccc2NC1=O` belongs 146 to 148 °C.

In turn, `Cn1cc(C(=O)O)c(=O)c2cc(Cl)c(N3CCOCC3)cc21` had a melting point of 334 °C. With `CC1(C)OC(=O)C(OC2CCc3ccccc32)=C1c1ccc(S(C)(=O)=O)cc1` (stereo not drawn) the figure was 128 to 129 °C. As to `COc1cc(CCCC#N)ccc1OCc1nc(-c2ccco2)oc1C`, the melting point lay in the range of 94 to 95 °C. Take `COc1ccc(N2C(=O)C(OC(C)=O)C2c2ccccc2Cl)cc1` (stereo not drawn): the melting point was in the range of 130 to 132 °C. Compound `CCOP(=O)(Cc1ccc2ccccc2c1O)OCC` gave a melting point of 90.1 to 91.3 °C. As for `N#Cc1cc(C2=NOC(c3cc(Cl)cc(Cl)c3)(C(F)(F)F)C2)ccc1-n1cccn1` (stereo not drawn), the melting point lay within 169 to 176 °C. Turning to `CCCCCCCCCCCCCCOc1ccccc1NC(=O)c1cc(Sc2nnnn2-c2cccc(C(=O)OCC)c2)c2ccccc2c1O`, the melting point fell in the range of 88 to 90 °C. In turn, `CSc1cnc2cc(-c3ccccc3)sc2c1O` gave a melting point above 325 °C. In turn, `NC(=O)N1CCN2c3ccccc3Cn3cccc3C2C1` (stereo not drawn) yielded a melting point of 175 to 177 °C. `O=C(NC1CCSC2COCC(C(=O)O)N2C1=O)C(S)Cc1ccccc1` (stereo not drawn): the melting point lay in the range of 224 to 226 °C.

Take `CCC(Cn1nc(-c2ccccc2)c(-c2ccccc2)c(C#N)c1=O)[N+](=O)[O-]` (stereo not drawn): the melting point lay within 154 to 155 °C. Turning to `CC(C)(C)C(=O)N[C@H]1CC[C@H](CCN2CCC(c3cccc4c3CCO4)CC2)CC1`, the melting point was determined as 192 °C. Consider `NC(=NO)c1c(F)ccc(OCc2nc3cc(Cl)ccc3s2)c1F`, for which the melting point is 169 to 170 °C. Regarding `CCCCN(CCCC)C(=O)CN1CC(c2ccc3c(c2)OCO3)C(C(=O)O)C1c1ccncc1` (stereo not drawn), the melting point was 131 to 132 °C. Consider `CCCCCCCCCCCCCCCCCCOc1ccc2ccccc2c1`, for which the melting point fell in the range of 64 to 68 °C. To `Cc1ccccc1C(=O)c1ccc(Nc2ccccc2NC(=O)CO)cc1F` belongs 149 to 150 °C. `Fc1ccc(-c2n[nH]cc2-c2ccnc(Nc3ccccc3F)n2)cc1` yielded a melting point of 239 to 240 °C.

`O=C(c1cccc(Cl)c1)N1CCc2cc(S(=O)(=O)N3CC(c4ccccc4)NC3=O)ccc21` (stereo not drawn) displayed a melting point of 132 to 136 °C. As to `c1ccc(COc2ccc(-c3nc(COc4cccc(CCCCn5ccnc5)c4)co3)cc2)cc1`, the melting point is 87 to 88 °C.

Take `CCCCS(=O)(=O)NCc1ccc(CCN2CCN(c3ccncc3)CC2)cc1`: the melting point was 154 to 156 °C.

Regarding `C[C@H]1CCC[C@@](O)(CNC(=O)c2c(Cl)ccc3nc(N4CC[C@H](O)C4)ccc23)C1`, the melting point came to 222 °C. `COc1cc2c(cc1O)CCN(Cc1cccc(C#N)c1)C2` showed a melting point of 113 to 155 °C. Regarding `COC(=O)c1cc(Br)cc(I)c1`, the melting point lay in the range of 55 to 57 °C.

`O=c1nc(NCN2CCOCC2)c(F)cn1CN1CCOCC1` showed a melting point of 156 to 158 °C. In turn, `CCN(CC)C(=O)Cc1c(-c2ccc(C)cc2)nc2c(C)cc(C)nn12` yielded a melting point of 155 to 158 °C. With `Cc1ccccc1C(=O)Nc1ccc(C(=O)O)cc1` the figure was 270 to 275 °C; with `O=C(OCc1ccccc1)c1ccc2cc(-c3ccc(C(O)CO)c(C45CC6CC(CC(C6)C4)C5)c3)ccc2c1` (stereo not drawn), 193 °C. In the case of `O=C(N[C@H]1CCC(=O)N2CCC[C@@H](C(=O)O)N2C1=O)OCC1c2ccccc2-c2ccccc21`, the melting point fell in the range of 120 to 126 °C. `CS(=O)(=O)c1nnc(-c2ccco2)s1`: the melting point was 120 °C. With `CCn1cc(C(=O)O)c(=O)c2cc(F)c(C3NCC4CCC3N4C)c(F)c21` (stereo not drawn), the melting point lay in the range of 184 to 187 °C. Compound `CCOC(=O)CC1SC2=Nc3ccccc3CN2C1=O` (stereo not drawn) had a melting point of 130 to 142 °C. Take `Cc1cc(C)cc(P(c2ccccc2)c2ccccc2)c1`: the melting point was in the range of 67 to 69 °C. To `O=C1O[C@H](O)[C@@H]2[C@H]1[C@@H]1C=C[C@H]2C1` belongs 133 °C; to `Cc1c(-c2ccccc2)oc2c(C(O)CCCO)cccc2c1=O` (stereo not drawn), 133 to 134 °C; to `CCCc1nc2ccc(C(=O)c3ccccc3)cc2n1Cc1ccc(C(=O)O)cc1`, 295 to 296 °C.

In turn, `CC(C)(C)OCC(O)CN` (stereo not drawn) gave a melting point of 41 to 43 °C. Regarding `CC1(C)Oc2cc3nonc3cc2C(NC(=O)NCCCl)C1O` (stereo not drawn), the melting point was 178 to 180 °C.

For the compound `NC(=O)CN1C(=O)[C@@H](NC(=O)c2ccc(Cl)cc2)[C@H](c2ccccc2)Sc2ccccc21` (relative stereo), the melting point was 272 to 275 °C.

Turning to `COC1=CC(=O)C(OC)=C(CCCCCC2=C(OC)C(=O)C(C)=C(OC)C2=O)C1=O`, the melting point was 48 to 49 °C. The compound `CN=C(N)Nc1nc(CSCCNC2=NS(=O)N=C2N)cs1` (stereo not drawn) showed a melting point of 86 to 91 °C. Consider `O=C(/C=C/c1ccn(S(=O)(=O)c2ccc3ccccc3c2)c1)NO`, for which the melting point was 153 °C. With `O=C(NNc1ccc([N+](=O)[O-])cc1)C(F)(F)F` the figure was 115 to 117 °C; with `COc1ccc(CCNS(=O)(=O)c2ccc(N)cc2)cc1`, 144 to 146 °C.

Take `C[C@H]1Oc2cccc(F)c2N(C)C(=O)[C@H]1NC(=O)OC(C)(C)C`: the melting point lay within 130 to 138 °C.

In the case of `ClCc1ccccc1COc1ccc(C=Cc2ccc3ccccc3n2)cc1`, the melting point is 127 to 128 °C.

In the case of `CCCC(=O)COS(=O)(=O)c1c(C)cc(C)c(C)c1C`, the melting point was 49 to 50 °C. Take `O=C1N=NC(=O)c2ccccc21`: the melting point lay in the range of 257 to 259 °C. To `Cc1ccc(S(=O)(=O)OC[C@@H](O)CCc2ccccc2)cc1` belongs 68 to 69 °C; to `CC(C)(C)OC(=O)CCP(Br)(c1ccccc1)(c1ccccc1)c1ccccc1`, 190 °C. `CCOC(=O)c1cc(-c2cccc(C(F)(F)F)c2)c(OCCO)c(-c2cccc(C(F)(F)F)c2)c1` yielded a melting point of 154 to 158 °C. `CC(C)(C)c1cc(C(=O)Nc2cccc(C(=O)O)c2)cc(C(C)(C)C)c1O` registered a melting point of 279 to 280 °C.

Compound `Cc1cccc(C(=O)c2nc(-c3ccccn3)no2)c1` displayed a melting point of 127 to 128 °C. Consider `O=c1[nH]c2ccccc2n1CCCN1CCC(c2noc3cc(F)ccc23)CC1`, for which the melting point lay within 175 to 177 °C.
